US20030018166A1 (priority 2000, published 2003)
“Also recorded” adds a separate entry of the source. Like-named read-outs stand apart in the source and are kept apart here.

Legend:
[1] = biological target: recombinant Icl (isocitrate lyase) (Mycobacterium tuberculosis, UniProt P9WKK7); experiment: biochemical; assay type: biochemical, M. tuberculosis (CSU93); conditions: for Ki: read-out: inhibition constants; for inhibit the activity to approximately: 5 mM inhibitor concentration
[2] = test system: wild type M. smegmatis mc^2155; assay type: cell-based; conditions: discs 30 mM and 60 mM
[3] = test system: O=C(O)CC(C(=O)O)C(O)C(=O)O; experiment: purified protein, by the assay type

Chain of recombinant Icl (isocitrate lyase) (P9WKK7 whole entry): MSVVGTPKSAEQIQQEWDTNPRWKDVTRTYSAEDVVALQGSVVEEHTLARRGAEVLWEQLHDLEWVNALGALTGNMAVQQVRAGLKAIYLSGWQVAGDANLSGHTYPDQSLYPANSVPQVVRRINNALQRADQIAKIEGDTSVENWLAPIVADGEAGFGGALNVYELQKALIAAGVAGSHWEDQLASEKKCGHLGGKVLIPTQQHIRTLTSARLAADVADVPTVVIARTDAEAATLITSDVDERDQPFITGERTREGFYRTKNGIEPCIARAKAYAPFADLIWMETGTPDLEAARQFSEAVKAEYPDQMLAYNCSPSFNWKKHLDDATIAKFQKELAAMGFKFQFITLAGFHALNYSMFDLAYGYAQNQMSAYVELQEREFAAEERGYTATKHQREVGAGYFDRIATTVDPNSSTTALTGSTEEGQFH

Molecule	inhibitory effect on Icl activity [1]	Ki [1] [µM]	also measured
O=C(O)[C@H](O)COP(=O)(O)O [3-Phosphoglycerate]	no inhibitory effect	–	–
O=C(O)CC[N+](=O)[O-] [3-nitropropionate]	–	3	effect on growth, inhibition zone around disc ([2]; grown on acetate): restricted to growth on acetate; also recorded: inhibitory; effect on growth, inhibition zone around disc ([2]; grown on glucose): not observed; also recorded: no effect
O=C(O)[C@H](O)[C@@H](O)[C@H](O)[C@H](O)COP(=O)(O)O [6-phosphogluconate]	no inhibitory effect	–	–
C=C(CC(=O)O)C(=O)O [Itaconate]	–	120	–
O=C(O)C(=O)O [Oxalate]	–	–	inhibit the activity to approximately [1]: approximately 50%
O=C(O)C(=O)CBr [bromopyruvate, 3-bromopyruvate]	–	120	effect on growth, inhibition zone around disc ([2]; grown on glucose): no effect
O=C(COP(=O)(O)O)[C@@H](O)[C@H](O)[C@H](O)COP(=O)(O)O [fructose-1,6-bisphosphate]	no inhibitory effect	–	–
C=C1CC(=O)OC1=O [itaconic anhydride]	–	190	–
O=C(O)CC(O)C(=O)O (stereo not shown) [malate]	–	–	inhibit the activity to approximately [1]: approximately 50%
O=C(O)CC(=O)O [malonic acid]	no inhibitory effect	–	–
O=C(O)CCC(=O)O [succinate]	–	–	inhibitory effect on the recombinant enzyme [1]: did not reveal any inhibitory effect
recombinant AceA (isocitrate lyase) (Mycobacterium tuberculosis CDC1551)	–	–	Km ([3]; other: Tricine-HCl buffer at pH 7.5, pH 7.5): 1300 µM
recombinant Icl (isocitrate lyase) (Mycobacterium tuberculosis H37Rv)	–	–	Km ([3]; other: Hanes-Woolf plot): 145 µM
